Experiments:
Type in all cases: cell-based
orexin-1 = biological target: T1, orexin-1 (Homo sapiens, UniProt O43613); assay: Antagonism against orexin-1 in the aforementioned (above identified) intracellular calcium assays
T1 construct: expressed in transfected cells
T1 sequence (O43613 1-425): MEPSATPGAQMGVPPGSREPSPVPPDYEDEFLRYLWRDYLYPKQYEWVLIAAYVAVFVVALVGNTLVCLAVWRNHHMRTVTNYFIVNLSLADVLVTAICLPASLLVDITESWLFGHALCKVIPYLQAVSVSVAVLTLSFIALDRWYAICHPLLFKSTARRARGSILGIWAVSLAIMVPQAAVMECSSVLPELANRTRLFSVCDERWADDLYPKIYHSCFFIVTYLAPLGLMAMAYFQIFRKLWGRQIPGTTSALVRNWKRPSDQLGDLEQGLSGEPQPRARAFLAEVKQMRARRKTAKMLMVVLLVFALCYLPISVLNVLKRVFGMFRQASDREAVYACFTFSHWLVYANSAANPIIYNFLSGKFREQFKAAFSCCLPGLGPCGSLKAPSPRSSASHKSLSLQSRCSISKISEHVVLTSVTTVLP
Excerpt: Antagonism against orexin receptors has been measured for each example compound using at least one of the following procedures. […] These values may fluctuate depending on the daily cellular assay performance. Fluctuations of this kind are known to those skilled in the art. […] Data highlighted with an asterix (*) is derived from a single experiment, otherwise all data reported is an average of at least two independant replicate experiments. […]

hOX1R [1] = biological target: T2, hOX1R (Homo sapiens, UniProt O43613); assay: Whole cell FLIPR functional assay, comparison with reference compounds, hOX1R; set-up: expressed in transfected cells; conditions: for Selectivity: orexin-1 receptor over orexin-2 receptor; for IC50: read-out: hOX1R pIC50 (converted)
T2 sequence (O43613 1-425): T1 sequence (O43613 1-425)
Excerpt: (§1) As indicated herein, by whole cell FLIPR functional assay data and by comparison with reference compounds not claimed within the present invention, the compounds of the present invention provide increased selectivity for the orexin-1 receptor over the orexin-2 receptor. The increased selectivity for the orexin-1 receptor over the orexin-2 receptor in the whole cell FLIPR functional assay provides enhanced predictive value for determining in vivo efficacy. Increasing the functional selectivity for the orexin-1 receptor reduces the potential for dual receptor antagonism in vivo. Such greater functional selectivity may provide benefits over other orexin receptor antagonists that are known in the art.

hOX2R [2] = biological target: T3, hOX2R (Homo sapiens, UniProt O43614); assay: Whole cell FLIPR functional assay, comparison with reference compounds, hOX2R; set-up: expressed in transfected cells; conditions: read-out: hOX2R pIC50 (converted)
T3 sequence (O43614 1-444): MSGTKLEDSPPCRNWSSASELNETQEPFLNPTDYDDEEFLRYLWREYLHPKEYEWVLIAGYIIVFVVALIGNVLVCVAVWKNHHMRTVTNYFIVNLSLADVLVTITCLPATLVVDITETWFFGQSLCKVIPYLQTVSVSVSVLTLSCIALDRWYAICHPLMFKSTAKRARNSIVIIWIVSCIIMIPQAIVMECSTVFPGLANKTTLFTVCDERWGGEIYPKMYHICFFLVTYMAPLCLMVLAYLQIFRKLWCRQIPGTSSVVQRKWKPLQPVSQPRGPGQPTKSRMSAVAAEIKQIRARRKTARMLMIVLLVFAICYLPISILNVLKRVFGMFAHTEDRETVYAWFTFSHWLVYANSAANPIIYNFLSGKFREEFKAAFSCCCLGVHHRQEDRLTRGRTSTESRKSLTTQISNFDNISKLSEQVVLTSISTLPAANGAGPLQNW
Excerpt: as §1

hOX1R [3] = biological target: T2, hOX1R; assay: Intracellular calcium measurements using division-arrested cells, OX1; conditions: agonist orexin A at 2×EC50, * = single experiment, otherwise average of at least two, read-out: pIC50 OX1 (converted)
Summary of the method: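 Division-arrested cells expressing human OX1 or OX2 were seeded for 16 h, then loaded with Calcium 5 dye plus probenecid for 1 h at 37 °C. Compounds in HEPES-buffered HBSS with 0.1% BSA, pH 7.4, top final concentration 10 μM, were added 10 min before the FlexStation calcium read.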

hOX1R [4] = biological target: T2, hOX1R; assay: Intracellular calcium measurements using stable-replicating cells, Method A, OX1; conditions: orexin-A at 4×EC50, * = single experiment, read-out: pIC50 OX1 (converted)
Description: (§2) Intracellular Calcium Measurements Using Stable-replicating Cells:
(§3) Method A (Table 2): Test compounds are prepared as 10 mM stock solutions in DMSO, warmed briefly for 20 seconds at 37° C. and serially diluted in half log concentrations with DMSO followed by dilution with assay buffer (HBSS (Sigma-Aldrich, H8264) containing 10 mM HEPES (Invitrogen, 15630080) and pH adjusted to 7.4) to a top final assay concentration of 10 μM.
(§4) Human OX1 (CT-A674) and human OX2 (CT-A675) receptor-expressing stable-replicating cells are grown in a culture medium, Ham F12 (Invitrogen, 31765-035) containing 10% fetal bovine serum (Invitrogen, 16000044), 1% non-essential amino acids (Invitrogen, 11140-050), 100 U/mL Penicillin/Streptomycin (Invitrogen, 15140-122) and G418 (Invitrogen, 11811023) at a concentration of 400 μg/mL. The cells are seeded at a density of 7,000 cells/well into black, clear bottom 384-well plates (Corning, 3683) and incubated at 37° C. in air supplemented with 5% CO2 for 16 hrs.
(§5) Loading dye (25 μL/well), prepared from a FLIPR Calcium 6 Assay kit (Molecular Devices, R8190-Explorer) according to the manufacturer's instructions, and the serially diluted test compounds (10 μL/well) are added to the plate. The plate is then incubated for 30 mins at 37° C. in 5% CO2, then for 30 mins at ambient temperature and placed into a FlexStation III reader.

hOX2R [5] = biological target: T3, hOX2R; assay: Intracellular calcium measurements using stable-replicating cells, Method A, OX2; conditions: orexin-A at 4×EC50, * = single experiment, read-out: pIC50 OX2 (converted)
Description: as §2, §3, §4, §5

hOX1R [6] = biological target: T2, hOX1R; assay: Intracellular calcium measurements using stable-replicating cells, Method B (CHO cells, FLIPR Tetra), OX1; conditions: orexin A at EC75, read-out: pIC50 OX1 (converted)
hOX2R [7] = biological target: T3, hOX2R; assay: Intracellular calcium measurements using stable-replicating cells, Method B (CHO cells, FLIPR Tetra), OX2; conditions: orexin A at EC75, read-out: pIC50 OX2 (converted)

CC[C@@H](CNc1ccc(Cl)cn1)N(C)C(=O)c1nc(C)ncc1-n1nccn1 [(S)—N-(1-((5-chloropyridin-2-yl)amino)butan-2-yl)-N,2-dimethyl-5-(2H-1,2,3-triazol-2-yl)pyrimidine-4-carboxamide]
IC50 (orexin-1): > 10000 nM

Cc1ccc(-n2nccn2)c(C(=O)N(C)C(CNc2ccc(Cl)cn2)C2COC2)c1 (centres unmarked) [N-(2-((5-chloropyridin-2-yl)amino)-1-(oxetan-3-yl)ethyl)-N,5-dimethyl-2-(2H-1,2,3-triazol-2-yl)benzamide]
IC50 (orexin-1): > 10000 nM

CCOC(=O)c1ccc(NC[C@H](CC)N(C)C(=O)c2cc(Cl)ccc2-n2nccn2)nc1 [(S)-ethyl 6-((2-(5-chloro-N-methyl-2-(2H-1,2,3-triazol-2-yl)benzamido)butyl)amino) nicotinate]
IC50 (orexin-1): > 10000 nM

CC[C@@H](CNc1ccc(Cl)cn1)N(C)C(=O)c1cc(C(F)(F)F)ccc1-n1ccnn1 [(S)—N-(1-((5-chloropyridin-2-yl)amino)butan-2-yl)-N-methyl-2-(1H-1,2,3-triazol-1-yl)-5-(trifluoromethyl)benzamide]
IC50 (orexin-1): 4900 nM

CC[C@@H](COc1nc2ccccc2n1C)N(C)C(=O)c1cc(C)ccc1-n1nccn1 [(S)—N,5-dimethyl-N-(1-((1-methyl-1H-benzo[d]imidazol-2-yl)oxy)butan-2-yl)-2-(2H-1,2,3-triazol-2-yl)benzamide]
IC50 (orexin-1): > 10000 nM

CN(CCNc1ccc(Cl)cn1)C(=O)c1ccccc1-c1ccccc1
Selectivity (hOX1R [1]): Selectivity 1.1x
IC50 (hOX1R [1]): 63.1 nM
IC50 (hOX2R [2]): 79.4 nM

CC[C@@H](CNc1ncc(C(F)(F)F)cn1)N(C)C(=O)c1nc(C)ccc1-n1nccn1 [Example 46, (S)—N,6-dimethyl-3-(2H-1,2,3-triazol-2-yl)-N-(1-((5-(trifluoromethyl)pyrimidin-2-yl)amino)butan-2-yl)picolinamide]
IC50 (hOX1R [3]): 20 nM
IC50 (hOX1R [4]): 31.6 nM
IC50 (hOX2R [5]): > 10000 nM
IC50 (hOX1R [6]): 3.16 nM
IC50 (hOX2R [7]): > 10000 nM

CC[C@@H](CNc1ccc(Cl)cn1)N(C)C(=O)c1cc(C)ccc1N1CCN(C)CC1 [(S)—N-(1-((5-chloropyridin-2-yl)amino)butan-2-yl)-N,5-dimethyl-2-(4-methylpiperazin-1-yl)benzamide]
IC50 (orexin-1): > 10000 nM

CC[C@@H](CNc1ccc(Cl)cn1)NC(=O)c1cc(C)ccc1N1CCN(C)CC1 [(S)—N-(1-((5-chloropyridin-2-yl)amino)butan-2-yl)-5-methyl-2-(4-methylpiperazin-1-yl)benzamide]
IC50 (orexin-1): > 10000 nM

CC(C)[C@H](CNc1ccc(Cl)cn1)N(C)C(=O)c1ccccc1-c1ccccc1
Selectivity (hOX1R [1]): Selectivity 1.9x
IC50 (hOX1R [1]): 1000 nM
IC50 (hOX2R [2]): 2000 nM

CC[C@@H](CNc1cnc(C(F)(F)F)cn1)N(C)C(=O)c1nc(C)ccc1-n1nccn1 [Example 47, (S)—N,6-dimethyl-3-(2H-1,2,3-triazol-2-yl)-N-(1-((5-(trifluoromethyl)pyrazin-2-yl)amino)butan-2-yl)picolinamide]
IC50 (hOX1R [3]): 31.6 nM
IC50 (hOX1R [4]): 3.98 nM
IC50 (hOX2R [5]): > 7940 nM
IC50 (hOX1R [6]): 2.51 nM
IC50 (hOX2R [7]): > 3980 nM

CC[C@@H](CNc1ccc(Cl)cn1)NC(=O)c1cc(C)ccc1N1CCOCC1 [(S)—N-(1-((5-chloropyridin-2-yl)amino)butan-2-yl)-5-methyl-2-morpholinobenzamide]
IC50 (orexin-1): > 10000 nM

CC(C)[C@@H](CNc1ccc(Cl)cn1)N(C)C(=O)c1ccccc1-c1ccccc1 [Example 10, (S)—N-(1-((5-chloropyridin-2-yl)amino)-3-methylbutan-2-yl)-N-methyl-[1,1′-biphenyl]-2-carboxamide]
IC50 (hOX1R [3]): 79.4 nM
Selectivity (hOX1R [1]): Selectivity 80x
IC50 (hOX1R [1]): 79.4 nM
IC50 (hOX2R [2]): 6310 nM

CC[C@@H](CNc1ncc(C(F)(F)F)cn1)N(C)C(=O)c1nc(N(C)C)cc2ccccc12 [Example 81, (S)-3-(dimethylamino)-N-methyl-N-(1-((5-(trifluoromethyl)pyrimidin-2-yl)amino)butan-2-yl)isoquinoline-1-carboxamide]
IC50 (hOX1R [4]): 39.8 nM
IC50 (hOX2R [5]): 251 nM
IC50 (hOX1R [6]): 5.01 nM
IC50 (hOX2R [7]): 251 nM

CC[C@@H](CNc1ccc2nccn2c1)N(C)C(=O)c1cc(Cl)ccc1-n1nccn1 [(S)-5-chloro-N-(1-(imidazo[1,2-a]pyridin-6-ylamino)butan-2-yl)-N-methyl-2-(2H-1,2,3-triazol-2-yl)benzamide]
IC50 (orexin-1): > 10000 nM

CC[C@@H](COc1nc2ccccc2n1C)NC(=O)c1cc(C)ccc1-n1nccn1 [(S)-5-methyl-N-(1-((1-methyl-1H-benzo[d]imidazol-2-yl)oxy)butan-2-yl)-2-(2H-1,2,3-triazol-2-yl)benzamide]
IC50 (orexin-1): > 10000 nM

CC[C@@H](CNc1ccc2ccccc2n1)N(C)C(=O)c1cc(Cl)ccc1-n1nccn1 [Example 77, (S)-5-chloro-N-methyl-N-(1-(quinolin-2-ylamino)butan-2-yl)-2-(2H-1,2,3-triazol-2-yl)benzamide]
IC50 (hOX1R [4]): 7.94 nM
IC50 (hOX2R [5]): 1260 nM
IC50 (hOX1R [6]): 0.794 nM
IC50 (hOX2R [7]): 501 nM

CC[C@@H](CNc1nc2ccccc2s1)N(C)C(=O)c1nc(C)ccc1-n1nccn1 [Example 63, (S)—N-(1-(benzo[d]thiazol-2-ylamino)butan-2-yl)-N,6-dimethyl-3-(2H-1,2,3-triazol-2-yl)picolinamide]
IC50 (hOX1R [4]): 1.58 nM
IC50 (hOX2R [5]): 1260 nM
IC50 (hOX1R [6]): 1.58 nM
IC50 (hOX2R [7]): 501 nM

CC[C@@H](CNC(=O)c1ccccn1)N(C)C(=O)c1cc(Cl)ccc1-n1nccn1 [(S)—N-(2-(5-chloro-N-methyl-2-(2H-1,2,3-triazol-2-yl)benzamido)butyl)picolinamide]
IC50 (orexin-1): > 10000 nM

CC[C@@H](CNc1ncc(C(F)(F)F)cn1)N(C)C(=O)c1nc(C(C)(C)O)ccc1-n1nccn1 [(S)-6-(2-hydroxypropan-2-yl)-N-methyl-3-(2H-1,2,3-triazol-2-yl)-N-(1-((5-(trifluoromethyl)pyrimidin-2-yl)amino)butan-2-yl)picolinamide]
IC50 (orexin-1): > 10000 nM
